# How the values were obtained:
# Assay in all cases: Kinase panel profiling
# Type in all cases: biochemical
# Conditions in all cases: 10 μM ATP
# ALK5/TGFBR1 = target: T1, ALK5/TGFBR1 (Homo sapiens, UniProt P36897)
# T1 construct: purchased Reaction Biology Corp
# Procedure: (§1) Kinase panel profiling was conducted by Reaction Biology Corp. (San Diego, CA, USA). A single dose (1.0 μM) of 6r was tested against 371 recombinant human kinases in the presence of 10 μM ATP.
# ARAF = target: T2, ARAF (Homo sapiens, UniProt P10398)
# T2 construct: purchased Reaction Biology Corp
# Procedure: as §1
# ARK5/NUAK1 = target: T3, ARK5/NUAK1 (Homo sapiens, UniProt O60285)
# T3 construct: purchased Reaction Biology Corp
# Procedure: as §1
# ASK1/MAP3K5 = target: T4, ASK1/MAP3K5 (Homo sapiens, UniProt Q99683)
# T4 construct: purchased Reaction Biology Corp
# Procedure: as §1
# AXL = target: T5, AXL (Homo sapiens, UniProt P30530)
# T5 construct: purchased Reaction Biology Corp
# Procedure: as §1
# CAMK2b = target: T6, CAMK2b (Homo sapiens, UniProt Q13554)
# T6 construct: purchased Reaction Biology Corp
# Procedure: as §1
# CAMKK2 = target: T7, CAMKK2 (Homo sapiens, UniProt Q96RR4)
# T7 construct: purchased Reaction Biology Corp
# Procedure: as §1
# CDK19/cyclin C = target: T8, CDK19/cyclin C (Homo sapiens, UniProt Q9BWU1)
# T8 construct: purchased Reaction Biology Corp
# Procedure: as §1
# CDK2/Cyclin A1 = target: T9, CDK2/Cyclin A1 (Homo sapiens, UniProt P24941)
# T9 construct: purchased Reaction Biology Corp
# Procedure: as §1
# CDK2/cyclin O = target: T10, CDK2/cyclin O (Homo sapiens, UniProt P24941)
# T10 construct: purchased Reaction Biology Corp
# Procedure: as §1
# CDK4/cyclin D3 = target: T11, CDK4/cyclin D3 (Homo sapiens, UniProt P11802)
# T11 construct: purchased Reaction Biology Corp
# Procedure: as §1
# CDK9/cyclin T1 = target: T12, CDK9/cyclin T1 (Homo sapiens, UniProt P50750)
# T12 construct: purchased Reaction Biology Corp
# Procedure: as §1
# CDK9/cyclin T2 = target: T13, CDK9/cyclin T2 (Homo sapiens, UniProt P50750)
# T13 construct: purchased Reaction Biology Corp
# Procedure: as §1
# CLK1 = target: T14, CLK1 (Homo sapiens, UniProt P49759)
# T14 construct: purchased Reaction Biology Corp
# Procedure: as §1
# CLK3 = target: T15, CLK3 (Homo sapiens, UniProt P49761)
# T15 construct: purchased Reaction Biology Corp
# Procedure: as §1
# EPHA7 = target: T16, EPHA7 (Homo sapiens, UniProt Q15375)
# T16 construct: purchased Reaction Biology Corp
# Procedure: as §1
# EPHB3 = target: T17, EPHB3 (Homo sapiens, UniProt P54753)
# T17 construct: purchased Reaction Biology Corp
# Procedure: as §1
# ERBB2/HER2 = target: T18, ERBB2/HER2 (Homo sapiens, UniProt P04626)
# T18 construct: purchased Reaction Biology Corp
# Procedure: as §1
# GRK1 = target: T19, GRK1 (Homo sapiens, UniProt Q15835)
# T19 construct: purchased Reaction Biology Corp
# Procedure: as §1
# JAK1 = target: T20, JAK1 (Homo sapiens, UniProt P23458)
# T20 construct: purchased Reaction Biology Corp
# Procedure: as §1
# JNK2 = target: T21, JNK2 (Homo sapiens, UniProt P45984)
# T21 construct: purchased Reaction Biology Corp
# Procedure: as §1
# LCK2/ICK = target: T22, LCK2/ICK (Homo sapiens, UniProt Q9UPZ9)
# T22 construct: purchased Reaction Biology Corp
# Procedure: as §1
# LIMK1 = target: T23, LIMK1 (Homo sapiens, UniProt P53667)
# T23 construct: purchased Reaction Biology Corp
# Procedure: as §1
# MASTL = target: T24, MASTL (Homo sapiens, UniProt Q96GX5)
# T24 construct: purchased Reaction Biology Corp
# Procedure: as §1
# MEKK2 = target: T25, MEKK2 (Homo sapiens, UniProt Q9Y2U5)
# T25 construct: purchased Reaction Biology Corp
# Procedure: as §1
# NEK7 = target: T26, NEK7 (Homo sapiens, UniProt Q8TDX7)
# T26 construct: purchased Reaction Biology Corp
# Procedure: as §1
# NIM1 = target: T27, NIM1 (Homo sapiens, UniProt Q8IY84)
# T27 construct: purchased Reaction Biology Corp
# Procedure: as §1
# PAK2 = target: T28, PAK2 (Homo sapiens, UniProt Q13177)
# T28 construct: purchased Reaction Biology Corp
# Procedure: as §1
# PAK5 = target: T29, PAK5 (Homo sapiens, UniProt Q9P286)
# T29 construct: purchased Reaction Biology Corp
# Procedure: as §1
# PDGFRb = target: T30, PDGFRb (Homo sapiens, UniProt P09619)
# T30 construct: purchased Reaction Biology Corp
# Procedure: as §1
# PKAcb = target: T31, PKAcb (Homo sapiens, UniProt P22694)
# T31 construct: purchased Reaction Biology Corp
# Procedure: as §1
# PLK4/SAK = target: T32, PLK4/SAK (Homo sapiens, UniProt O00444)
# T32 construct: purchased Reaction Biology Corp
# Procedure: as §1
# PRKX = target: T33, PRKX (Homo sapiens, UniProt P51817)
# T33 construct: purchased Reaction Biology Corp
# Procedure: as §1
# RAF1 = target: T34, RAF1 (Homo sapiens, UniProt P04049)
# T34 construct: purchased Reaction Biology Corp
# Procedure: as §1
# ROCK1 = target: T35, ROCK1 (Homo sapiens, UniProt Q13464)
# T35 construct: purchased Reaction Biology Corp
# Procedure: as §1
# SNARK/NUAK2 = target: T36, SNARK/NUAK2 (Homo sapiens, UniProt Q9H093)
# T36 construct: purchased Reaction Biology Corp
# Procedure: as §1
# SRMS = target: T37, SRMS (Homo sapiens, UniProt Q9H3Y6)
# T37 construct: purchased Reaction Biology Corp
# Procedure: as §1
# STK22D/TSSK1 = target: T38, STK22D/TSSK1 (Homo sapiens, UniProt Q9BXA7)
# T38 construct: purchased Reaction Biology Corp
# Procedure: as §1
# STK38/NDR1 = target: T39, STK38/NDR1 (Homo sapiens, UniProt Q15208)
# T39 construct: purchased Reaction Biology Corp
# Procedure: as §1
# TAOK2/TAO1 = target: T40, TAOK2/TAO1 (Homo sapiens, UniProt Q9UL54)
# T40 construct: purchased Reaction Biology Corp
# Procedure: as §1
# TESK1 = target: T41, TESK1 (Homo sapiens, UniProt Q15569)
# T41 construct: purchased Reaction Biology Corp
# Procedure: as §1
# p70S6Kb/RPS6KB2 = target: T42, p70S6Kb/RPS6KB2 (Homo sapiens, UniProt Q9UBS0)
# T42 construct: purchased Reaction Biology Corp
# Procedure: as §1
# T4 sequence (Q99683 whole entry): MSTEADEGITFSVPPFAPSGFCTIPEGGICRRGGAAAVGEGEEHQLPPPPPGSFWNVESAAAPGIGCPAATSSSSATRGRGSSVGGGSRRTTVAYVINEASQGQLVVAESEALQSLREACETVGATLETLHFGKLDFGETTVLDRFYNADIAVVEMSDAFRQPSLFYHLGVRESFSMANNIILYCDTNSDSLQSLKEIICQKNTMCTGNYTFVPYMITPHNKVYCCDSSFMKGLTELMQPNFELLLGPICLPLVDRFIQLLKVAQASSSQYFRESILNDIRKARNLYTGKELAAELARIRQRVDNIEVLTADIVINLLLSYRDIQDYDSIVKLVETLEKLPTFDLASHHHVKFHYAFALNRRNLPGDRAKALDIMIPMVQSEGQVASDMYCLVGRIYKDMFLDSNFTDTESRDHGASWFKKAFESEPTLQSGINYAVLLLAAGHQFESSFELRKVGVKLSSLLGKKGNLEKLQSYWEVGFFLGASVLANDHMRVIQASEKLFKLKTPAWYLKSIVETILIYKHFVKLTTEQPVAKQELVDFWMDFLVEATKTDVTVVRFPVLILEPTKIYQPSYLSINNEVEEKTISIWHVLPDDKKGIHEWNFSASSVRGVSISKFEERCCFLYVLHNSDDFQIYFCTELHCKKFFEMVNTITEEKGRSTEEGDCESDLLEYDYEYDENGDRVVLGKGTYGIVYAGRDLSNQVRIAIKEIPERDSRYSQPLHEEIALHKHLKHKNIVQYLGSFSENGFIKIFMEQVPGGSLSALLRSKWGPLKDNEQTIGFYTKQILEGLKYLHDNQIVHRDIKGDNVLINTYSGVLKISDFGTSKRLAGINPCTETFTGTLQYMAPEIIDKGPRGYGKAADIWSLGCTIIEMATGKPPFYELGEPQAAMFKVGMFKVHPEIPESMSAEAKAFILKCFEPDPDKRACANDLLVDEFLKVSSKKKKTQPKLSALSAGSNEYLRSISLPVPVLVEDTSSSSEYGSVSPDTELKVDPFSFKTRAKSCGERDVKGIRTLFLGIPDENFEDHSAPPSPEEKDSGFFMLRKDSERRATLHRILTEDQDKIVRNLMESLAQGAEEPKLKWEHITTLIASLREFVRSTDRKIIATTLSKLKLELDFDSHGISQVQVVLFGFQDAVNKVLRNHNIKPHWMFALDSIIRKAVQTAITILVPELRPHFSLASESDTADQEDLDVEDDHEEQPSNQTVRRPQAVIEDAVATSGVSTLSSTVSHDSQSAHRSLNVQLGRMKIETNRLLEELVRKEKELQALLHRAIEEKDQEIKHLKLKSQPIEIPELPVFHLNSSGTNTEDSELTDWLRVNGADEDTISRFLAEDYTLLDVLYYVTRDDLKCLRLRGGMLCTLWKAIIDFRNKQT
# T2 sequence (P10398 whole entry): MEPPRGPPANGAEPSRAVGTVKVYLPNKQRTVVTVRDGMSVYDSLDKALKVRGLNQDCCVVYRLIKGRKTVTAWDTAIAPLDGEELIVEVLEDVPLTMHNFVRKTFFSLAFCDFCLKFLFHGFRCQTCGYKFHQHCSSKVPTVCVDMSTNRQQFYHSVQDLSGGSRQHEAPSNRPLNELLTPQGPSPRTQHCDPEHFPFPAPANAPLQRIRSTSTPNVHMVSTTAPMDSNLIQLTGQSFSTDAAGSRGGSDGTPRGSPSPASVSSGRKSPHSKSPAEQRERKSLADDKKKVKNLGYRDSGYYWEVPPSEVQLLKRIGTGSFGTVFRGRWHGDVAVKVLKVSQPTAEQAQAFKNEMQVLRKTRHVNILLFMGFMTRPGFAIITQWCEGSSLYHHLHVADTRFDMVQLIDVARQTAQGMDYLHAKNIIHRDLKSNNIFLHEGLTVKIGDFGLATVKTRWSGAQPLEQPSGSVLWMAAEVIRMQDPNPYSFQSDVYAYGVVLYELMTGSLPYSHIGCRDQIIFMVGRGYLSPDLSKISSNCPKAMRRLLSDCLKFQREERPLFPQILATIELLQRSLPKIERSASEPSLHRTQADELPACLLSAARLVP
# T22 sequence (Q9UPZ9 whole entry): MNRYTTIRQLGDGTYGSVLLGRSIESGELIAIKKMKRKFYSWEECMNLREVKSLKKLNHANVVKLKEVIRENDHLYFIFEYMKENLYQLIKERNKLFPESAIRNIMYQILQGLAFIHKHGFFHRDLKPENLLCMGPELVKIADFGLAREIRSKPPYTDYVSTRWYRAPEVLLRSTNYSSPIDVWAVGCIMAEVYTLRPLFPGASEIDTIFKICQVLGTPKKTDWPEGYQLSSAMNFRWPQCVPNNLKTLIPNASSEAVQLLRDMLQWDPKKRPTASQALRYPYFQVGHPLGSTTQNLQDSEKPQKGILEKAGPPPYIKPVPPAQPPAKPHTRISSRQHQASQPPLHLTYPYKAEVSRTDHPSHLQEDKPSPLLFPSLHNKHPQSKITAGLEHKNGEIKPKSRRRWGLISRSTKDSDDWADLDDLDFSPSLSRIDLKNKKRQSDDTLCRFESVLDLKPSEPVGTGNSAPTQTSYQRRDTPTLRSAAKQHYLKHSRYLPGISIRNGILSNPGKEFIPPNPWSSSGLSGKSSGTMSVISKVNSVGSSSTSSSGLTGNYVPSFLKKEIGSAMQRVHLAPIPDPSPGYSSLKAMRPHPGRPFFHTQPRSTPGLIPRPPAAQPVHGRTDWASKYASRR
# T40 sequence (Q9UL54 whole entry): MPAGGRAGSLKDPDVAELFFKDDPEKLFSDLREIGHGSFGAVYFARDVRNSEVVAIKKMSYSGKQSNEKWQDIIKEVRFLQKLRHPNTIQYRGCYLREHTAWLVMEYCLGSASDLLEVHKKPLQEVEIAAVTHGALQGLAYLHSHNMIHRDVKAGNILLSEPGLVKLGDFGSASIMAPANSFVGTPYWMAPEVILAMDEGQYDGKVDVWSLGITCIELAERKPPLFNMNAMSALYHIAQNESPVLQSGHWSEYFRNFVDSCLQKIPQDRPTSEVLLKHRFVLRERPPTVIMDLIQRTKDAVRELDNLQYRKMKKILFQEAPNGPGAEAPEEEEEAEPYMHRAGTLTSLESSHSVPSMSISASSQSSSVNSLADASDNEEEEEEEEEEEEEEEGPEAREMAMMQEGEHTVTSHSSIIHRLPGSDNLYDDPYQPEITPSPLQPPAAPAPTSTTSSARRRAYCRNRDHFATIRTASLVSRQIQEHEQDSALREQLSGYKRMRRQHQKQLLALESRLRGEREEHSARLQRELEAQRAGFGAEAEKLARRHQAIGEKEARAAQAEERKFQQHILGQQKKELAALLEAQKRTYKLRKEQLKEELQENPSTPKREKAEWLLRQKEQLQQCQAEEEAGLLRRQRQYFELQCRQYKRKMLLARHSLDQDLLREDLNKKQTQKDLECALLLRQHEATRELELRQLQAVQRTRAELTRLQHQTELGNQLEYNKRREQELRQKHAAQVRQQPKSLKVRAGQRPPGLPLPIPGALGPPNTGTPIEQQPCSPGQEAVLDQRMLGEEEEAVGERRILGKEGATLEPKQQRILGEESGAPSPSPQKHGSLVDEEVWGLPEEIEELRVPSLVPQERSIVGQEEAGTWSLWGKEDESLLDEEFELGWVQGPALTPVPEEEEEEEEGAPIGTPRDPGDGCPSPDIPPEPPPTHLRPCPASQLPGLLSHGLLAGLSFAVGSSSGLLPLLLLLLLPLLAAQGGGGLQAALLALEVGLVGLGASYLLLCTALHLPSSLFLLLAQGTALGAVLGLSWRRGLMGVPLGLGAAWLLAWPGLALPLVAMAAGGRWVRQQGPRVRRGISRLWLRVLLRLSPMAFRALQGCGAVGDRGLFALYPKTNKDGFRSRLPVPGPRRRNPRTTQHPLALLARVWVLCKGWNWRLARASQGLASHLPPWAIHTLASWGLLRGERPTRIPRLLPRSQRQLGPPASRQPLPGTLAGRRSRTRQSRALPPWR
# T8 sequence (Q9BWU1 whole entry): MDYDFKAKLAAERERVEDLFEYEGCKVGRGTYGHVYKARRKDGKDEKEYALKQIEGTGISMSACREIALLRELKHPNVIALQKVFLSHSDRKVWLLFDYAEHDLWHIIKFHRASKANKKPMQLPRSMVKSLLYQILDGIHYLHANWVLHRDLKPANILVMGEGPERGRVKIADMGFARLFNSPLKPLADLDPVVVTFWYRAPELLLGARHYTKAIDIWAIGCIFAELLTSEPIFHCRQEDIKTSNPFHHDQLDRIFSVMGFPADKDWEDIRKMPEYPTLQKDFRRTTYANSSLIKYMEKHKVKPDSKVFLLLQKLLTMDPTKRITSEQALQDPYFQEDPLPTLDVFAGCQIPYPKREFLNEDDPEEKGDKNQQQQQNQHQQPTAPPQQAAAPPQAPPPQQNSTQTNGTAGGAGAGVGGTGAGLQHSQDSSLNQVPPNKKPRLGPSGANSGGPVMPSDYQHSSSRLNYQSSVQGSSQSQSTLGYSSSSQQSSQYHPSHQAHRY
# T8 sequence (P24863 whole entry partner): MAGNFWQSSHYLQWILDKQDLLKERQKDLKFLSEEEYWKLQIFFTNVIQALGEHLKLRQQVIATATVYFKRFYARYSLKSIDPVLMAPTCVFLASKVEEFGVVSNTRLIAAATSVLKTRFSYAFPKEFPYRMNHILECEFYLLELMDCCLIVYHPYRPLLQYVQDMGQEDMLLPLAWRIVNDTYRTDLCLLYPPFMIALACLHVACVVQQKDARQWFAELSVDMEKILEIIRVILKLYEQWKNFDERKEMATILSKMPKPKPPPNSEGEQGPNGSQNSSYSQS
# T27 sequence (Q8IY84 whole entry): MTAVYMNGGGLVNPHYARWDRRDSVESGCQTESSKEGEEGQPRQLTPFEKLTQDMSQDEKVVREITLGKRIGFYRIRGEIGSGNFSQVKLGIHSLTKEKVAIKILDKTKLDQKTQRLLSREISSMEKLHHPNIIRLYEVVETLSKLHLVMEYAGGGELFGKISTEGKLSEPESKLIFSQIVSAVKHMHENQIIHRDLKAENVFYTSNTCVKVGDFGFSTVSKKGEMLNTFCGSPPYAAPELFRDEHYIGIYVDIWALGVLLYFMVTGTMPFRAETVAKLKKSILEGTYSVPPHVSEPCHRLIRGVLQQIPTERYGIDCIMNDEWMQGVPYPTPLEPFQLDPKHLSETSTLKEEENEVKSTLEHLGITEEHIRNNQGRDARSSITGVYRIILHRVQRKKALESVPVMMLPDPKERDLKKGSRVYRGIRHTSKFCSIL
compound,measurement,setting,value
Cc1ccc(NC(=O)c2ccc(CN3CCN(C)CC3)c(C(F)(F)F)c2)cc1-c1cnc2sc(N)nc2c1 [6r],inhibition at 1 µM,ALK5/TGFBR1,0%
same,inhibition at 1 µM,ARAF,98.3%
same,inhibition at 1 µM,ARK5/NUAK1,14.7%
same,inhibition at 1 µM,ASK1/MAP3K5,0%
same,inhibition at 1 µM,AXL,15.8%
same,inhibition at 1 µM,CAMK2b,0%
same,inhibition at 1 µM,CAMKK2,20.5%
same,inhibition at 1 µM,CDK19/cyclin C,12.8%
same,inhibition at 1 µM,CDK2/Cyclin A1,7.6%
same,inhibition at 1 µM,CDK2/cyclin O,12.3%
same,inhibition at 1 µM,CDK4/cyclin D3,9.8%
same,inhibition at 1 µM,CDK9/cyclin T1,0%
same,inhibition at 1 µM,CDK9/cyclin T2,0%
same,inhibition at 1 µM,CLK1,0%
same,inhibition at 1 µM,CLK3,0%
same,inhibition at 1 µM,EPHA7,40.7%
same,inhibition at 1 µM,EPHB3,42.5%
same,inhibition at 1 µM,ERBB2/HER2,5.4%
same,inhibition at 1 µM,GRK1,16.7%
same,inhibition at 1 µM,JAK1,74.9%
same,inhibition at 1 µM,JNK2,31.8%
same,inhibition at 1 µM,LCK2/ICK,60.8%
same,inhibition at 1 µM,LIMK1,87.2%
same,inhibition at 1 µM,MASTL,1.3%
same,inhibition at 1 µM,MEKK2,11.1%
same,inhibition at 1 µM,NEK7,5.4%
same,inhibition at 1 µM,NIM1,1.3%
same,inhibition at 1 µM,PAK2,5.4%
same,inhibition at 1 µM,PAK5,5%
same,inhibition at 1 µM,PDGFRb,94.2%
same,inhibition at 1 µM,PKAcb,0%
same,inhibition at 1 µM,PLK4/SAK,10.4%
same,inhibition at 1 µM,PRKX,12.8%
same,inhibition at 1 µM,RAF1,99.9%
same,inhibition at 1 µM,ROCK1,0.2%
same,inhibition at 1 µM,SNARK/NUAK2,0%
same,inhibition at 1 µM,SRMS,9.2%
same,inhibition at 1 µM,STK22D/TSSK1,14.9%
same,inhibition at 1 µM,STK38/NDR1,17.1%
same,inhibition at 1 µM,TAOK2/TAO1,61.9%
same,inhibition at 1 µM,TESK1,5.3%
same,inhibition at 1 µM,p70S6Kb/RPS6KB2,34%
